{"source": "PubChem BioAssay AID328", "about": "(DTP/NCI, 2004)", "tested_on": "BDF1 mice, P388 leukemia ip, median survival T/C", "assay": "NCI In Vivo Anticancer Drug Screen. Data for tumor model P388 Leukemia (intraperitoneal) in B6D2F1 (BDF1) mice", "conditions": "endpoint: median survival time, higher = longer survival", "summary_of_the_method": "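Steps: implant the tumour, treat one group with compound and another with vehicle, record survival, then divide treated by control.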", "key": {"[1]": {"conditions": "dose: 100.0 mg/kg/injection, schedule: Q01DX009 (ip), vehicle: saline with Tween-80"}, "[2]": {"conditions": "dose: 100.0 mg/kg/injection, schedule: Q04DX003 (ip), vehicle: saline with Tween-80"}, "[3]": {"conditions": "dose: 12.5 mg/kg/injection, schedule: Q01DX009 (ip), vehicle: saline with Tween-80"}, "[4]": {"conditions": "dose: 25.0 mg/kg/injection, schedule: Q01DX009 (ip), vehicle: Klucel (hydroxypropylcellulose) (HPC)"}, "[5]": {"conditions": "dose: 50.0 mg/kg/injection, schedule: Q01DX009 (ip), vehicle: Klucel (hydroxypropylcellulose) (HPC)"}, "[6]": {"conditions": "dose: 25.0 mg/kg/injection, schedule: Q01DX009 (ip), vehicle: saline with Tween-80"}, "[7]": {"conditions": "dose: 25.0 mg/kg/injection, schedule: Q04DX003 (ip), vehicle: saline with Tween-80"}, "[8]": {"conditions": "dose: 50.0 mg/kg/injection, schedule: Q04DX003 (ip), vehicle: saline with Tween-80"}}, "note": "Values joined by “and” are separate entries in the source; they are usually repeats but may differ in a detail not shown here. Equal entries are not always repeated. Toxic doses and inconclusive results are not listed.", "data": [{"compound": "OC1CCCC2CCC[N-]C12.OC1CCCC2CCC[N-]C12.[Mn+2]", "note": "(configuration not stated)", "values": [{"measurement": "T/C", "setting": "dose: 6.25 mg/kg/injection, schedule: Q01DX009 (ip), vehicle: DMSO", "result": "107 % of control"}, {"measurement": "T/C", "setting": "dose: 12.5 mg/kg/injection, schedule: Q01DX009 (ip), vehicle: DMSO", "result": "110 % of control"}, {"measurement": "T/C", "setting": "dose: 25.0 mg/kg/injection, schedule: Q01DX009 (ip), vehicle: DMSO", "result": "108 % of control"}, {"measurement": "T/C", "setting": "dose: 50.0 mg/kg/injection, schedule: Q01DX009 (ip), vehicle: DMSO", "result": "123 % of control"}, {"measurement": "T/C", "setting": "dose: 100.0 mg/kg/injection, schedule: Q01DX009 (ip), vehicle: DMSO", "result": "100 % of control"}]}, {"compound": "Nc1cc(S(=O)(=O)c2ccc(O)c(N)c2)ccc1O", "values": [{"measurement": "T/C", "setting": "[1]", "result": "104 % of control"}, {"measurement": "T/C", "setting": "[2]", "result": "100 % of control"}, {"measurement": "T/C", "setting": "dose: 200.0 mg/kg/injection, schedule: Q01DX009 (ip), vehicle: saline with Tween-80", "result": "108 % of control"}, {"measurement": "T/C", "setting": "dose: 200.0 mg/kg/injection, schedule: Q04DX003 (ip), vehicle: saline with Tween-80", "result": "95 % of control"}, {"measurement": "T/C", "setting": "dose: 400.0 mg/kg/injection, schedule: Q01DX009 (ip), vehicle: saline with Tween-80", "result": "87 % of control"}, {"measurement": "T/C", "setting": "dose: 400.0 mg/kg/injection, schedule: Q04DX003 (ip), vehicle: saline with Tween-80", "result": "87 % of control"}]}, {"compound": "COCCOC(C)C(=O)C(O)S(=O)(=O)O", "note": "(configuration not stated)", "values": [{"measurement": "T/C", "setting": "dose: 132.0 mg/kg/injection, schedule: Q01DX009 (ip), vehicle: saline", "result": "150 % of control"}, {"measurement": "T/C", "setting": "dose: 200.0 mg/kg/injection, schedule: Q01DX009 (ip), vehicle: saline", "result": "155 % of control"}, {"measurement": "T/C", "setting": "dose: 300.0 mg/kg/injection, schedule: Q01DX009 (ip), vehicle: saline", "result": "155 % of control"}]}, {"compound": "O=[N+]([O-])c1ccc(N=Nc2c(Cl)cc(O)cc2Cl)cc1", "values": [{"measurement": "T/C", "setting": "dose: 3.13 mg/kg/injection, schedule: Q01DX009 (ip), vehicle: saline with Tween-80", "result": "95 % of control"}, {"measurement": "T/C", "setting": "dose: 6.25 mg/kg/injection, schedule: Q01DX009 (ip), vehicle: Klucel (hydroxypropylcellulose) (HPC)", "result": "115 % of control"}, {"measurement": "T/C", "setting": "dose: 6.25 mg/kg/injection, schedule: Q01DX009 (ip), vehicle: saline with Tween-80", "result": "95 % of control"}, {"measurement": "T/C", "setting": "dose: 12.5 mg/kg/injection, schedule: Q01DX009 (ip), vehicle: Klucel (hydroxypropylcellulose) (HPC)", "result": "110 % of control"}, {"measurement": "T/C", "setting": "[3]", "result": "95 % of control"}, {"measurement": "T/C", "setting": "[4]", "result": "115 % of control"}, {"measurement": "T/C", "setting": "dose: 35.0 mg/kg/injection, schedule: Q01DX009 (ip), vehicle: Klucel (hydroxypropylcellulose) (HPC)", "result": "94 % of control"}, {"measurement": "T/C", "setting": "[5]", "result": "97 % of control"}, {"measurement": "T/C", "setting": "dose: 75.0 mg/kg/injection, schedule: Q01DX009 (ip), vehicle: Klucel (hydroxypropylcellulose) (HPC)", "result": "118 % of control"}, {"measurement": "T/C", "setting": "[1]", "result": "120 % of control"}, {"measurement": "T/C", "setting": "dose: 100.0 mg/kg/injection, schedule: Q04DX003 (ip), vehicle: saline sonified", "result": "100 % of control"}, {"measurement": "T/C", "setting": "dose: 200.0 mg/kg/injection, schedule: Q04DX003 (ip), vehicle: saline sonified", "result": "100 % of control"}, {"measurement": "T/C", "setting": "dose: 400.0 mg/kg/injection, schedule: Q04DX003 (ip), vehicle: saline sonified", "result": "100 % of control"}]}, {"compound": "COC(=O)N1c2ccccc2C=CC1C#N", "note": "(configuration not stated)", "values": [{"measurement": "T/C", "setting": "[3]", "result": "100 % of control"}, {"measurement": "T/C", "setting": "[6]", "result": "90 % of control and 100 % of control"}, {"measurement": "T/C", "setting": "[7]", "result": "100 % of control"}, {"measurement": "T/C", "setting": "dose: 50.0 mg/kg/injection, schedule: Q01DX009 (ip), vehicle: saline with Tween-80", "result": "90 % of control"}, {"measurement": "T/C", "setting": "[8]", "result": "109 % of control"}, {"measurement": "T/C", "setting": "[1]", "result": "100 % of control"}, {"measurement": "T/C", "setting": "[2]", "result": "100 % of control"}]}, {"compound": "O=c1ccc(=O)c2c(=O)c3ccccc3c(=O)c1=2", "values": [{"measurement": "T/C", "setting": "[4]", "result": "104 % of control"}, {"measurement": "T/C", "setting": "[5]", "result": "103 % of control"}, {"measurement": "T/C", "setting": "dose: 50.0 mg/kg/injection, schedule: Q04DX003 (ip), vehicle: Klucel (hydroxypropylcellulose) (HPC)", "result": "95 % of control"}, {"measurement": "T/C", "setting": "dose: 100.0 mg/kg/injection, schedule: Q01DX009 (ip), vehicle: Klucel (hydroxypropylcellulose) (HPC)", "result": "99 % of control"}, {"measurement": "T/C", "setting": "dose: 100.0 mg/kg/injection, schedule: Q04DX003 (ip), vehicle: Klucel (hydroxypropylcellulose) (HPC)", "result": "104 % of control"}, {"measurement": "T/C", "setting": "dose: 200.0 mg/kg/injection, schedule: Q04DX003 (ip), vehicle: Klucel (hydroxypropylcellulose) (HPC)", "result": "88 % of control"}]}, {"compound": "CC(=O)CC(=O)NCCCN1CCCCC1", "values": [{"measurement": "T/C", "setting": "[3]", "result": "92 % of control"}, {"measurement": "T/C", "setting": "[6]", "result": "88 % of control"}, {"measurement": "T/C", "setting": "[7]", "result": "96 % of control"}, {"measurement": "T/C", "setting": "[8]", "result": "88 % of control"}]}, {"compound": "O=[N+]([O-])c1ccc(-c2ncc3cnccn23)cc1", "values": [{"measurement": "T/C", "setting": "dose: 100.0 mg/kg/injection, schedule: Q04DX003 (ip), vehicle: saline", "result": "111 % of control"}, {"measurement": "T/C", "setting": "dose: 200.0 mg/kg/injection, schedule: Q04DX003 (ip), vehicle: saline", "result": "97 % of control"}, {"measurement": "T/C", "setting": "dose: 400.0 mg/kg/injection, schedule: Q04DX003 (ip), vehicle: saline", "result": "102 % of control"}]}]}
